Data published in PubChem BioAssay (NCI).
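A five-concentration, 48-hour dose response in 96-well plates underlies each endpoint, interpolated linearly between surrounding concentrations. Here, GI50 denotes the concentration required for 50% inhibition of growth. At the TGI there is no net growth.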

Legend:
Test in all cases: NCI-60 cell line screen, 48 h
[1] = test system: MDA-MB-435
[2] = test system: SF-268 CNS
[3] = test system: SN12C renal
[4] = test system: CCRF-CEM leukemia
[5] = test system: MCF7 breast
[6] = test system: CAKI-1 renal
[7] = test system: OVCAR-5 ovarian
[8] = test system: K-562 leukemia
[9] = test system: MALME-3M melanoma
[10] = test system: UACC-62 melanoma
[11] = test system: HL-60(TB) leukemia
[12] = test system: SF-295 CNS
[13] = test system: NCI-H23 lung
[14] = test system: DU-145 prostate
[15] = test system: HCC-2998 colon
[16] = test system: SK-MEL-5 melanoma
[17] = test system: OVCAR-3 ovarian
[18] = test system: SNB-75 CNS
[19] = test system: SK-OV-3 ovarian
[20] = test system: OVCAR-4 ovarian
[21] = test system: SW-620 colon
[22] = test system: NCI-H460 lung
[23] = test system: SNB-19 CNS
[24] = test system: MDA-MB-231 breast
[25] = test system: HT29 colon
[26] = test system: BT-549 breast
[27] = test system: U251 CNS
[28] = test system: OVCAR-8 ovarian
[29] = test system: MOLT-4 leukemia
[30] = test system: SF-539 CNS
[31] = test system: LOX IMVI melanoma
[32] = test system: M14 melanoma
[33] = test system: RPMI-8226 leukemia
[34] = test system: KM12 colon
[35] = test system: NCI/ADR-RES ovarian
[36] = test system: HS 578T breast
[37] = test system: EKVX NSCLC
[38] = test system: IGROV1 ovarian
[39] = test system: HOP-92 NSCLC
[40] = test system: HCT-116 colon
[41] = test system: NCI-H522 lung
[42] = test system: UACC-257 melanoma
[43] = test system: SK-MEL-2 melanoma
[44] = test system: SR leukemia
[45] = test system: A549 NSCLC
[46] = test system: NCI-H226 lung
[47] = test system: MDA-MB-468 breast
[48] = test system: 786-0 renal
[49] = test system: ACHN renal
[50] = test system: A498 renal
[51] = test system: SK-MEL-28 melanoma

`CCCn1cc(-c2nc(Nc3ccc(C(=O)NCCCCNc4cccc5c4C(=O)N(C4CCC(=O)NC4=O)C5=O)cc3)nc3[nH]ccc23)cn1` (stereo not given) gave a GI50 [1] of 68.6 nM, a TGI [1] of over 100000 nM and a GI50 [2] of 25.7 nM. It also gave a TGI [2] of over 100000 nM, a GI50 [3] of 16.6 nM and a TGI [3] of over 100000 nM. For the same compound, the GI50 [4] was under 10 nM, the TGI [4] was under 10 nM and the GI50 [5] was 33.9 nM. The TGI [5] was over 100000 nM, the GI50 [6] was 190 nM and the TGI [6] was over 100000 nM. The GI50 [7] was 243 nM, the TGI [7] was over 100000 nM and the GI50 [8] was 36.8 nM. It also gave a TGI [8] of over 100000 nM, a GI50 [9] of under 10 nM and a TGI [9] of under 10 nM. The GI50 [10] was over 100000 nM, the TGI [10] was over 100000 nM and the GI50 [11] was under 10 nM. For the same compound, the TGI [11] was 516 nM, the GI50 [12] was 209 nM and the TGI [12] was over 100000 nM. It also gave a GI50 [13] of 18600 nM, a TGI [13] of over 100000 nM and a GI50 [14] of over 100000 nM. For the same compound, the TGI [14] was over 100000 nM, the GI50 [15] was under 10 nM and the TGI [15] was over 100000 nM. It also gave a GI50 [16] of 30 nM, a TGI [16] of 188 nM and a GI50 [17] of 424 nM. The TGI [17] was over 100000 nM, the GI50 [18] was under 10 nM and the TGI [18] was 2060 nM. It also gave a GI50 [19] of 425 nM, a TGI [19] of over 100000 nM and a GI50 [20] of 35.4 nM. It also gave a TGI [20] of over 100000 nM, a GI50 [21] of under 10 nM and a TGI [21] of over 100000 nM. It also gave a GI50 [22] of over 100000 nM, a TGI [22] of over 100000 nM and a GI50 [23] of under 12.4 nM. For the same compound, the TGI [23] was over 100000 nM, the GI50 [24] was under 10 nM and the TGI [24] was under 10 nM. It also gave a GI50 [25] of 166 nM, a TGI [25] of over 100000 nM and a GI50 [26] of under 10 nM. For the same compound, the TGI [26] was under 10 nM, the GI50 [27] was 589 nM and the TGI [27] was over 100000 nM. It also gave a GI50 [28] of under 10 nM, a TGI [28] of over 100000 nM and a GI50 [29] of under 10 nM. The GI50 [30] was 67.6 nM, the TGI [30] was over 100000 nM and the GI50 [31] was over 100000 nM. The TGI [31] was over 100000 nM, the GI50 [32] was 81.7 nM and the TGI [32] was over 100000 nM. The GI50 [33] was 157 nM, the TGI [33] was over 100000 nM and the GI50 [34] was 37.4 nM. For the same compound, the TGI [34] was over 100000 nM, the GI50 [35] was over 100000 nM and the TGI [35] was over 100000 nM. It also gave a GI50 [36] of under 10 nM, a TGI [36] of over 100000 nM and a TGI [37] of over 100000 nM. It also gave a GI50 [38] of 11.7 nM, a TGI [38] of over 100000 nM and a GI50 [39] of under 10 nM. It also gave a TGI [39] of under 10 nM, a GI50 [40] of 27400 nM and a TGI [40] of over 100000 nM. It also gave a GI50 [41] of over 100000 nM, a TGI [41] of over 100000 nM and a GI50 [42] of over 100000 nM. The TGI [42] was over 100000 nM, the GI50 [43] was 53.6 nM and the TGI [43] was over 100000 nM. For the same compound, the GI50 [44] was 319 nM, the TGI [44] was over 100000 nM and the GI50 [45] was 119 nM. The TGI [45] was over 100000 nM, the GI50 [46] was 31.9 nM and the TGI [46] was over 100000 nM. For the same compound, the GI50 [47] was under 10 nM, the TGI [47] was under 10 nM and the GI50 [48] was 136 nM. The TGI [48] was over 100000 nM, the GI50 [49] was over 100000 nM and the TGI [49] was over 100000 nM. It also gave a GI50 [50] of 157 nM, a TGI [50] of over 100000 nM and a GI50 [51] of 123 nM. The TGI [51] was over 100000 nM.
